Reference: US20230157952A1, “METHOD FOR IMPROVING THE STABILITY OF A PHARMACEUTICAL COMPOSITION COMPRISING A HIGH PENETRATION DRUG, AND THE PHARMACEUTICAL COMPOSITION OBTAINED THEREFROM” (Techfields Inc., priority 2020, published 2023)
Each block holds one compound with its values, some of them ahead of it.

Assay: Effect of temperature (and pH) on the stability of the solution (purity)
Format: physicochemical
Conditions: 7% solution in water

Purity(%) at day 0 (pH 1.0, day 0): 98.0 ± 0.3% | Purity(%) at day 21 (5° C.) (pH 1.0, day 21, 5° C.): 92.7 ± 0.3% | Purity(%) at day 21 (25° C.) (pH 1.0, day 21, 25° C.): 69.1 ± 0.3% | Purity(%) at day 21 (40° C.) (pH 1.0, day 21, 40° C.): 16.3 ± 0.3% | Purity (%) at day 21 (60° C.) (pH 1.0, day 21, 60° C.): 0% | Purity(%) at day 0 (pH 2.0, day 0): 98.1 ± 0.3% | Purity(%) at day 21 (5° C.) (pH 2.0, day 21, 5° C.): 95.9 ± 0.3% | Purity(%) at day 21 (25° C.) (pH 2.0, day 21, 25° C.): 83.5 ± 0.3% | Purity(%) at day 21 (40° C.) (pH 2.0, day 21, 40° C.): 27.5 ± 0.3% | Purity (%) at day 21 (60° C.) (pH 2.0, day 21, 60° C.): 0% | Purity(%) at day 0 (pH 3.0, day 0): 98.3 ± 0.2% | Purity(%) at day 21 (5° C.) (pH 3.0, day 21, 5° C.): 97.4 ± 0.3% | Purity(%) at day 21 (25° C.) (pH 3.0, day 21, 25° C.): 94.6 ± 0.2% | Purity(%) at day 21 (40° C.) (pH 3.0, day 21, 40° C.): 49.3 ± 0.2% | Purity (%) at day 21 (60° C.) (pH 3.0, day 21, 60° C.): 0% | Purity(%) at day 0 (pH 3.7, day 0): 98.4 ± 0.2% | Purity(%) at day 21 (5° C.) (pH 3.7, day 21, 5° C.): 97.7 ± 0.2% | Purity(%) at day 21 (25° C.) (pH 3.7, day 21, 25° C.): 97.3 ± 0.2% | Purity(%) at day 21 (40° C.) (pH 3.7, day 21, 40° C.): 59.9 ± 0.2% | Purity (%) at day 21 (60° C.) (pH 3.7, day 21, 60° C.): 19.3 ± 0.3% | Purity(%) at day 0 (pH 4.0, day 0): 98.5 ± 0.1% | Purity(%) at day 21 (5° C.) (pH 4.0, day 21, 5° C.): 98.2 ± 0.2% | Purity(%) at day 21 (25° C.) (pH 4.0, day 21, 25° C.): 97.5 ± 0.2% | Purity(%) at day 21 (40° C.) (pH 4.0, day 21, 40° C.): 70.7 ± 0.2% | Purity (%) at day 21 (60° C.) (pH 4.0, day 21, 60° C.): 23.6 ± 0.3% | Purity(%) at day 0 (pH 4.3, day 0): 98.5 ± 0.2% | Purity(%) at day 21 (5° C.) (pH 4.3, day 21, 5° C.): 98.2 ± 0.2% | Purity(%) at day 21 (25° C.) (pH 4.3, day 21, 25° C.): 97.6 ± 0.1% | Purity(%) at day 21 (40° C.) (pH 4.3, day 21, 40° C.): 70.1 ± 0.2% | Purity (%) at day 21 (60° C.) (pH 4.3, day 21, 60° C.): 27.7 ± 0.2% | Purity(%) at day 0 (pH 4.6, day 0): 98.5 ± 0.1% | Purity(%) at day 21 (5° C.) (pH 4.6, day 21, 5° C.): 98.2 ± 0.2% | Purity(%) at day 21 (25° C.) (pH 4.6, day 21, 25° C.): 97.5 ± 0.2% | Purity(%) at day 21 (40° C.) (pH 4.6, day 21, 40° C.): 59.3 ± 0.2% | Purity (%) at day 21 (60° C.) (pH 4.6, day 21, 60° C.): 22.3 ± 0.2% | Purity(%) at day 0 (pH 5.0, day 0): 98.4 ± 0.2% | Purity(%) at day 21 (5° C.) (pH 5.0, day 21, 5° C.): 97.5 ± 0.2% | Purity(%) at day 21 (25° C.) (pH 5.0, day 21, 25° C.): 94.9 ± 0.2% | Purity(%) at day 21 (40° C.) (pH 5.0, day 21, 40° C.): 45.8 ± 0.3% | Purity (%) at day 21 (60° C.) (pH 5.0, day 21, 60° C.): 5.9 ± 0.2% | Purity(%) at day 0 (pH 6.0, day 0): 98.2 ± 0.2% | Purity(%) at day 21 (5° C.) (pH 6.0, day 21, 5° C.): 95.3 ± 0.2% | Purity(%) at day 21 (25° C.) (pH 6.0, day 21, 25° C.): 88.8 ± 0.2% | Purity(%) at day 21 (40° C.) (pH 6.0, day 21, 40° C.): 28.6 ± 0.2% | Purity (%) at day 21 (60° C.) (pH 6.0, day 21, 60° C.): 0% | Purity(%) at day 0 (pH 7.0, day 0): 98.0 ± 0.3% | Purity(%) at day 21 (5° C.) (pH 7.0, day 21, 5° C.): 90.2 ± 0.3% | Purity(%) at day 21 (25° C.) (pH 7.0, day 21, 25° C.): 60.9 ± 0.2% | Purity(%) at day 21 (40° C.) (pH 7.0, day 21, 40° C.): 17.4 ± 0.3% | Purity (%) at day 21 (60° C.) (pH 7.0, day 21, 60° C.): 0% | Purity(%) at day 0 (pH 8.0, day 0): 97.7 ± 0.3% | Purity(%) at day 21 (5° C.) (pH 8.0, day 21, 5° C.): 79.7 ± 0.3% | Purity(%) at day 21 (25° C.) (pH 8.0, day 21, 25° C.): 49.9 ± 0.3% | Purity(%) at day 21 (40° C.) (pH 8.0, day 21, 40° C.): 0% | Purity (%) at day 21 (60° C.) (pH 8.0, day 21, 60° C.): 0%
Compound: CCN(CC)CCOC(=O)CCc1ccc2cc(OC)ccc2c1.Cl

Purity(%) at day 0 (pH 1.0, day 0): 98.2 ± 0.3% | Purity(%) at day 21 (5° C.) (pH 1.0, day 21, 5° C.): 90.1 ± 0.3% | Purity(%) at day 21 (25° C.) (pH 1.0, day 21, 25° C.): 59.9 ± 0.3% | Purity(%) at day 21 (40° C.) (pH 1.0, day 21, 40° C.): 7.9 ± 0.3% | Purity (%) at day 21 (60° C.) (pH 1.0, day 21, 60° C.): 0% | Purity(%) at day 0 (pH 2.0, day 0): 98.4 ± 0.3% | Purity(%) at day 21 (5° C.) (pH 2.0, day 21, 5° C.): 93.0 ± 0.2% | Purity(%) at day 21 (25° C.) (pH 2.0, day 21, 25° C.): 74.8 ± 0.2% | Purity(%) at day 21 (40° C.) (pH 2.0, day 21, 40° C.): 17.6 ± 0.2% | Purity (%) at day 21 (60° C.) (pH 2.0, day 21, 60° C.): 0% | Purity(%) at day 0 (pH 3.0, day 0): 98.6 ± 0.1% | Purity(%) at day 21 (5° C.) (pH 3.0, day 21, 5° C.): 96.9 ± 0.2% | Purity(%) at day 21 (25° C.) (pH 3.0, day 21, 25° C.): 88.9 ± 0.2% | Purity(%) at day 21 (40° C.) (pH 3.0, day 21, 40° C.): 36.4 ± 0.2% | Purity (%) at day 21 (60° C.) (pH 3.0, day 21, 60° C.): 0% | Purity(%) at day 0 (pH 3.7, day 0): 98.7 ± 0.2% | Purity(%) at day 21 (5° C.) (pH 3.7, day 21, 5° C.): 97.8 ± 0.1% | Purity(%) at day 21 (25° C.) (pH 3.7, day 21, 25° C.): 94.5 ± 0.2% | Purity(%) at day 21 (40° C.) (pH 3.7, day 21, 40° C.): 50.6 ± 0.2% | Purity (%) at day 21 (60° C.) (pH 3.7, day 21, 60° C.): 7.3 ± 0.3% | Purity(%) at day 0 (pH 4.0, day 0): 98.8 ± 0.1% | Purity(%) at day 21 (5° C.) (pH 4.0, day 21, 5° C.): 97.9 ± 0.1% | Purity(%) at day 21 (25° C.) (pH 4.0, day 21, 25° C.): 95.1 ± 0.1% | Purity(%) at day 21 (40° C.) (pH 4.0, day 21, 40° C.): 53.2 ± 0.2% | Purity (%) at day 21 (60° C.) (pH 4.0, day 21, 60° C.): 20.2 ± 0.2% | Purity(%) at day 0 (pH 4.3, day 0): 98.8 ± 0.2% | Purity(%) at day 21 (5° C.) (pH 4.3, day 21, 5° C.): 97.9 ± 0.2% | Purity(%) at day 21 (25° C.) (pH 4.3, day 21, 25° C.): 95.2 ± 0.2% | Purity(%) at day 21 (40° C.) (pH 4.3, day 21, 40° C.): 54.8 ± 0.1% | Purity (%) at day 21 (60° C.) (pH 4.3, day 21, 60° C.): 21.8 ± 0.3% | Purity(%) at day 0 (pH 4.6, day 0): 98.7 ± 0.1% | Purity(%) at day 21 (5° C.) (pH 4.6, day 21, 5° C.): 97.8 ± 0.2% | Purity(%) at day 21 (25° C.) (pH 4.6, day 21, 25° C.): 95.0 ± 0.1% | Purity(%) at day 21 (40° C.) (pH 4.6, day 21, 40° C.): 54.7 ± 0.2% | Purity (%) at day 21 (60° C.) (pH 4.6, day 21, 60° C.): 15.5 ± 0.3% | Purity(%) at day 0 (pH 5.0, day 0): 98.6 ± 0.3% | Purity(%) at day 21 (5° C.) (pH 5.0, day 21, 5° C.): 96.3 ± 0.2% | Purity(%) at day 21 (25° C.) (pH 5.0, day 21, 25° C.): 89.8 ± 0.1% | Purity(%) at day 21 (40° C.) (pH 5.0, day 21, 40° C.): 30.1 ± 0.2% | Purity (%) at day 21 (60° C.) (pH 5.0, day 21, 60° C.): 3.2 ± 0.2% | Purity(%) at day 0 (pH 6.0, day 0): 98.4 ± 0.2% | Purity(%) at day 21 (5° C.) (pH 6.0, day 21, 5° C.): 93.4 ± 0.2% | Purity(%) at day 21 (25° C.) (pH 6.0, day 21, 25° C.): 73.9 ± 0.2% | Purity(%) at day 21 (40° C.) (pH 6.0, day 21, 40° C.): 16.5 ± 0.2% | Purity (%) at day 21 (60° C.) (pH 6.0, day 21, 60° C.): 0% | Purity(%) at day 0 (pH 7.0, day 0): 98.2 ± 0.3% | Purity(%) at day 21 (5° C.) (pH 7.0, day 21, 5° C.): 89.2 ± 0.3% | Purity(%) at day 21 (25° C.) (pH 7.0, day 21, 25° C.): 59.7 ± 0.2% | Purity(%) at day 21 (40° C.) (pH 7.0, day 21, 40° C.): 7.1 ± 0.3% | Purity (%) at day 21 (60° C.) (pH 7.0, day 21, 60° C.): 0% | Purity(%) at day 0 (pH 8.0, day 0): 98.0 ± 0.3% | Purity(%) at day 21 (5° C.) (pH 8.0, day 21, 5° C.): 77.1 ± 0.3% | Purity(%) at day 21 (25° C.) (pH 8.0, day 21, 25° C.): 40.8 ± 0.3% | Purity(%) at day 21 (40° C.) (pH 8.0, day 21, 40° C.): 0% | Purity (%) at day 21 (60° C.) (pH 8.0, day 21, 60° C.): 0%
Compound: CCN(CC)CCOC(=O)CCc1nc(-c2ccccc2)c(-c2ccccc2)o1.Cl
